Experimental data from patent US20230000813A1, “COMPOUND FOR THE TREATMENT OF BOVINE OR SWINE RESPIRATORY DISEASE” (Intervet Inc., priority 2016, published 2023).
Values after ≈ are worked out from the molar mass of the structure shown. Values joined by “and” are separate entries in the source; they are usually repeats but may differ in a detail not shown here. Equal values may be shown once. Marks after values point to notes of the source that are not given here.

Experiments:
[1] = system: Mannheimia haemolytica MH 10720 (154, BRD field isolate); assay: MIC, broth-microdilution (CLSI VET01-A4); assay type: cell-based; settings: strain MH 10720
Method in brief: (§1)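 Read-out is visual: the MIC is the lowest compound concentration at which no turbidity is seen by eye. Trays carried a doubling dilution series, with interpretation following CLSI VET01-S3.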

[2] = system: Mannheimia haemolytica MH 12587 (1071, BRD field isolate, macrolide-resistance: erm+, E+); assay: MIC, broth-microdilution (CLSI VET01-A4); assay type: cell-based; settings: strain MH 12587, macrolide-resistant
Method in brief: as §1

[3] = system: Mannheimia haemolytica MH 6357 (M7/2, reference strain, cattle infection strain); assay: MIC, broth-microdilution (CLSI VET01-A4); assay type: cell-based; settings: strain MH 6357
Method in brief: as §1

[4] = system: Mannheimia haemolytica MH 6374 (ATCC 33396, reference strain); assay: MIC, broth-microdilution (CLSI VET01-A4); assay type: cell-based; settings: strain MH 6374
Method in brief: as §1

[5] = system: Pasteurella multocida PM 10775 (080130003051, BRD field isolate); assay: MIC, broth-microdilution (CLSI VET01-A4); assay type: cell-based; settings: strain PM 10775
Method in brief: as §1

[6] = system: Pasteurella multocida PM 12080 (IV102277-0093, BRD field isolate); assay: MIC, broth-microdilution (CLSI VET01-A4); assay type: cell-based; settings: strain PM 12080
Method in brief: as §1

[7] = system: Pasteurella multocida PM 6267 (P 2225 (L386), reference strain, mouse infection strain); assay: MIC, broth-microdilution (CLSI VET01-A4); assay type: cell-based; settings: strain PM 6267
Method in brief: as §1

[8] = system: Pasteurella multocida PM 6391 (ATCC 43137, reference strain); assay: MIC, broth-microdilution (CLSI VET01-A4); assay type: cell-based; settings: strain PM 6391
Method in brief: as §1

[9] = system: Acinetobacter baumanii AB 15919 (IV369-2012, dermatitis field isolate); assay: MIC, broth-microdilution (CLSI VET01-A4); assay type: cell-based; settings: strain AB 15919
Procedure: (§2) The Minimum inhibitory concentrations (MIC) of compounds according to the invention were determined by the broth-microdilution method according to CLSI document VET01-A4.
(§3) Microdilution trays containing a doubling dilution series of the test compound were used for the tests.
(§4) The MIC results were interpreted according to the CLSI documents VET01-S3. The lowest concentration of compound at which no visible growth (i.e. no turbidity) detected by the unaided eye was recorded as the MIC.

[10] = system: Acinetobacter baumanii AB 16496 (ATCC 19606, reference strain); assay: MIC, broth-microdilution (CLSI VET01-A4); assay type: cell-based; settings: strain AB 16496
Procedure: as §2, §3, §4

[11] = system: Mannheimia haemolytica MH 12180 (KLI-02944, BRD field isolate); assay: MIC, broth-microdilution (CLSI VET01-A4); assay type: cell-based; settings: strain MH 12180
Procedure: as §2, §3, §4

[12] = system: Pasteurella multocida PM 14426 (0006-439, BRD field isolate, macrolide-resistant); assay: MIC, broth-microdilution (CLSI VET01-A4); assay type: cell-based; settings: strain PM 14426, macrolide-resistant
Procedure: as §2, §3, §4

[13] = system: Staphylococcus aureus SA 5816 (2139, mastitis field isolate); assay: MIC, broth-microdilution (CLSI VET01-A4); assay type: cell-based; settings: strain SA 5816
Procedure: as §2, §3, §4

[14] = system: Staphylococcus aureus SA 6114 (ATCC 29213, reference strain); assay: MIC, broth-microdilution (CLSI VET01-A4); assay type: cell-based; settings: strain SA 6114
Procedure: as §2, §3, §4

[15] = system: 20 isolates of Actinobacillus (A.) pleuropneumoniae; assay: MIC50/MIC90, broth-microdilution, European respiratory tract isolates; assay type: cell-based
Procedure: (§5) The in vitro activity of compounds against 20 isolates of Actinobacillus (A.) pleuropneumoniae, 20 of Bordetella (B.) bronchiseptica, 20 of Histophilus (H.) somni, 40 of Mannheimia (M.) haemolytica and 40 of Pasteurella (P.) multocida collected in different European countries were determined. All bacteria were isolated from the respiratory tract of swine and cattle suffering from respiratory disease. All isolates were epidemiologically unrelated as specified by the different suppliers.
(§6) The minimum inhibitory concentrations (MIC) of compounds according to the invention were determined by the broth-microdilution method according to CLSI document VET01-A4.
(§7) Microdilution trays containing a doubling dilution series of the test compounds were used for the tests.
as §4

[16] = system: 20 isolates of Bordetella (B.) bronchiseptica; assay: as above; assay type: cell-based
Procedure: as §5, §6, §7, §4

[17] = system: 20 isolates of Histophilus (H.) somni; assay: as above; assay type: cell-based
Procedure: as §5, §6, §7, §4

[18] = system: 40 isolates of Mannheimia (M.) haemolytica; assay: as above; assay type: cell-based
Procedure: as §5, §6, §7, §4

[19] = system: 40 isolates of Pasteurella (P.) multocida; assay: as above; assay type: cell-based
Procedure: as §5, §6, §7, §4

M. haemolytica = assay: Mannheimia haemolytica cattle lung infection model, efficacy (Example 10); assay type: in vivo, cattle calves; settings: for Food consumption, cumulated for all animals in the group: 3 calves, 10 mg/kg
Procedure: Unless otherwise described the study was conducted as described in Clinical Example 8
Calves were infected via intratracheal instillation of appr. 300 mL of M. haemolytica PBS suspension containing approximately 4×10^9 CFU M. haemolytica in late log phase on Day 0.
One hour later three animals each were treated with 10 mg/kg of Compound 231(referred to as C. 231) (80 mg/mL in 10% Poloxamer 188), or 10 mg/kg or 5 mg/kg Compound 329 (referred to as C. 329) (150 mg/mL in 35% Cavitron).
The following clinical findings were recorded: The general behavior scores of the animals before (DO am) and after infection with M. haemolytica in the different treated and control groups are indicated in FIG. 8-1: 0=normal; 1=slightly depressive, 2=moderately depressive, 3=highly depressive, 4=recumbency.
The following pathomorphological findings after section on Day 2 were recorded: After measuring the body weight and the lung weight the Lung body mass ratio was calculated as shown in FIG. 8-2. A healthy animal has a lung body mass ration around 1.7 or lower. The area percentage of lung consolidations compared to the total lung tissue and the lung score determined that is a combined score of such percentage of lung consoldiations and the grade. For the “grade” the degree of lung consolidation score was graded from 0 to 3 for each of eight lung lobes: 0 no visible changes, 1 low graded colour changes or induration, 2 medium graded induration, 3 high graded induration, hepatisation, necrosis.
The geometrical means (CFU/g tissue) of bacteriological re-isolations of Mannheimia haemolytica from lung tissue are illustrated in FIG. 8-4.

[20] = Plasma and tissue concentrations in infected calves (Example 10); assay type: in vivo, cattle calves; settings: SC single 10 mg/kg (C 231 in 10% Poloxamer 188; C 329 in 35% Cavitron), individual animals and mean
[21] = calves infected with M. haemolytica, SC, single, 10 mg/kg BW

SMILES: COCCNCc1ccc(C#Cc2ccc(C(=O)N[C@H](C(=O)NO)[C@@H](C)O)cc2)cc1 [C. 231]
- MIC [1]: 0.5 µg/mL (≈ 1.18 µM)
- MIC [2]: 0.5 µg/mL (≈ 1.18 µM)
- MIC [3]: 0.5 µg/mL (≈ 1.18 µM)
- MIC [4]: 0.25 µg/mL (≈ 0.588 µM)
- MIC [5]: ≤0.016 µg/mL
- MIC [6]: 0.063 µg/mL (≈ 0.148 µM)
- MIC [7]: ≤0.016 µg/mL
- MIC [8]: 0.063 µg/mL (≈ 0.148 µM)
- MIC [9]: >16 µg/mL
- MIC [10]: >16 µg/mL
- MIC [11]: 0.5 µg/mL (≈ 1.18 µM)
- MIC [12]: 0.032 µg/mL (≈ 0.0752 µM)
- MIC [13]: >16 µg/mL
- MIC [14]: >16 µg/mL
- MIC50 [15]: 0.25 µg/mL (≈ 0.588 µM)
- MIC90 [15]: 0.5 µg/mL (≈ 1.18 µM)
- MIC50 [16]: >16 µg/mL
- MIC90 [16]: >16 µg/mL
- MIC50 [17]: 0.125 µg/mL (≈ 0.294 µM)
- MIC90 [17]: 0.25 µg/mL (≈ 0.588 µM)
- MIC50 [18]: 0.5 µg/mL (≈ 1.18 µM)
- MIC90 [18]: 1 µg/mL (≈ 2.35 µM)
- MIC50 [19]: ≤0.016 µg/mL
- MIC90 [19]: 0.063 µg/mL (≈ 0.148 µM)
- Food consumption, cumulated for all animals in the group (M. haemolytica; D 0 am, after infection and treatment): 1800** g
- Food consumption, cumulated for all animals in the group (M. haemolytica; D 0 pm): 4800 g
- Food consumption, cumulated for all animals in the group (M. haemolytica; D +1 am): 4800 g
- Food consumption, cumulated for all animals in the group (M. haemolytica; D +1 pm): 4800 g
- Food consumption, cumulated for all animals in the group (M. haemolytica; D −1 (before infection)): 4800 g
- Bacteriological Cure (x of n) (M. haemolytica; [21]): 2/3
- Survival (x of n) (M. haemolytica; [21]): 3/3
- efficacy against an artificial lung infection with M. haemolytica in the calf (M. haemolytica; tested dosages 10 mg/kg for C 231 and 10 mg/kg and 5 mg/kg for C 329, conclusion in words): effective
- Concentration, Tissue (48 h) ELF [20]: BLQ
- Concentration, Tissue (48 h) Muscle [20]: 27 ng/mL
- Concentration, Plasma 0.5 h ([20]; 10 mg/kg): 1150 ng/mL (2×) and 1320 ng/mL
- Concentration, Plasma 2 h ([20]; 10 mg/kg): 448 ng/mL and 468 ng/mL and 447 ng/mL
- Concentration, Plasma 4 h ([20]; 10 mg/kg): 179 ng/mL and 171 ng/mL and 180 ng/mL
- Concentration, Plasma 6 h ([20]; 10 mg/kg): 83.9 ng/mL and 82.8 ng/mL and 102 ng/mL
- Concentration, Plasma 24 h ([20]; 10 mg/kg): 6.21 ng/mL and 10.8 ng/mL and 7.47 ng/mL
- Concentration, Plasma 48 h ([20]; 10 mg/kg): BLQ and 7.16 ng/mL and 5.74 ng/mL
- Concentration, Tissue (48 h) Kidney ([20]; 10 mg/kg): 56 ng/mL and 53.8 ng/mL and 79.3 ng/mL
- Concentration, Tissue (48 h) Liver ([20]; 10 mg/kg): 48.7 ng/mL and 41.2 ng/mL and 66.9 ng/mL
- Concentration, Tissue (48 h) Lung ([20]; 10 mg/kg): 26.6 ng/mL and BLQ and 22.4 ng/mL
- Concentration, Tissue (48 h) Muscle ([20]; 10 mg/kg): BLQ
- Concentration, Plasma 0 h ([20]; predose): BLQ

SMILES: CCCNCc1ccc(C#Cc2ccc(C(=O)N[C@H](C(=O)NO)[C@@H](C)O)cc2)cc1 [C. 251]
- MIC [1]: 0.25 µg/mL (≈ 0.611 µM)
- MIC [2]: 2 µg/mL (≈ 4.88 µM)
- MIC [3]: 2 µg/mL (≈ 4.88 µM)
- MIC [4]: 8 µg/mL (≈ 19.5 µM)
- MIC [5]: 8 µg/mL (≈ 19.5 µM)
- MIC [6]: 0.063 µg/mL (≈ 0.154 µM)
- MIC [7]: 1 µg/mL (≈ 2.44 µM)
- MIC [8]: 8 µg/mL (≈ 19.5 µM)
- MIC [9]: >16 µg/mL
- MIC [10]: >16 µg/mL
- MIC [11]: 8 µg/mL (≈ 19.5 µM)
- MIC [12]: 8 µg/mL (≈ 19.5 µM)
- MIC [13]: >16 µg/mL
- MIC [14]: >16 µg/mL
- MIC50 [15]: 0.25 µg/mL (≈ 0.611 µM)
- MIC90 [15]: 0.5 µg/mL (≈ 1.22 µM)
- MIC50 [16]: >16 µg/mL
- MIC90 [16]: >16 µg/mL
- MIC50 [17]: 0.125 µg/mL (≈ 0.305 µM)
- MIC90 [17]: 0.25 µg/mL (≈ 0.611 µM)
- MIC50 [18]: 1 µg/mL (≈ 2.44 µM)
- MIC90 [18]: 1 µg/mL (≈ 2.44 µM)
- MIC50 [19]: 0.063 µg/mL (≈ 0.154 µM)
- MIC90 [19]: 0.125 µg/mL (≈ 0.305 µM)
